Target: β1AR (Homo sapiens, UniProt P08588)
Test: TR-FRET receptor-ligand saturation binding assay, Tag-lite β1AR cells
Settings: 2 h at room temperature, read-out: Kd app
Procedure: To confirm whether the affinity of carazolol-KK114 (24) is sufficient for the intended imaging experiments and to evaluate its β2/β1AR selectivity, we performed a TR-FRET assay in Tag-lite β1AR or β2AR transfected cells (Cisbio) labeled with Tb^3+ cryptate (Lumi4-Tb) (Fig. 3c)[39]. […] (Fig. 3d, Supplementary Fig. 5b). The high affinities of both fluorescent ligands enabled the imaging experiments.
K d determination was performed on Tag-lite β1AR (Cisbio, Cat. No. C1TT1BETA1) or β2AR (Cisbio, Cat. No. C1TT1BETA2) Tb^3+ cryptate labeled transfected cells. The β1AR or β2AR cells labeled with SNAP-Terbium interact with the specific ligand labeled with the corresponding fluorophore. […] 20 µl of a fluorescent probe or control compound in Tag-lite buffer was added to each well and incubated for 2 h at room temperature (20 °C) before readout. FRET readout was performed on a multiwell plate reader Spark 20 M (Tecan) at room temperature. […] The ratio of the acceptor and donor emission signals was calculated for each individual well using equation (3):3 Ratio=Signal655nm−BackgroundSignal/Signal620nm−BackgroundSignal
Luminescence background signal was measured in wells containing 40 µl of Tag-lite buffer only. Specific binding was calculated by subtracting nonspecific binding ratio from total binding ratio at each fluorescent ligand concentration. […]

β1AR, sequence (P08588 whole entry): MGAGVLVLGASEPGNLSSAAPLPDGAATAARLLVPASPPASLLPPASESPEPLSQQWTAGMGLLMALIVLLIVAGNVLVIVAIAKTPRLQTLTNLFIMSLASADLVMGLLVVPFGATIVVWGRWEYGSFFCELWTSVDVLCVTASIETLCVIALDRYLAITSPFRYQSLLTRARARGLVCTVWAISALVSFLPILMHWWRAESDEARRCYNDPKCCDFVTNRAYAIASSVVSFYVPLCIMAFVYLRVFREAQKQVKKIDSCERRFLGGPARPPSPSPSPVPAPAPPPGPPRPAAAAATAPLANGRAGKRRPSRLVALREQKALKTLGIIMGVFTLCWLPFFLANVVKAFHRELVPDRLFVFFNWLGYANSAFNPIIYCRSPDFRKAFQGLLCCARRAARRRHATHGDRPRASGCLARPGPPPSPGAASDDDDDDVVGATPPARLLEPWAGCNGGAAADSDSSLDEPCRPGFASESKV

## Cc1c(CCC(=O)NCCOCCOCCNC(=O)CCN(C)C(=O)c2c(F)c(F)c(F)c(F)c2C2=c3cc4c5c(c3Oc3c2cc2c6c3CCCN6C(C)(C)C=C2CS(=O)(=O)O)CCC[N+]=5C(C)(C)C=C4CS(=O)(=O)[O-])cccc1CC(C)(C)NCC(O)c1ccc(O)c2c1OCC(=O)N2 (stereo not shown) [BI-PEG-KK114 (18)]
  Kd: 63.4 ± 6.6 nM

Reference: publication PMC5614969, “High-Affinity Functional Fluorescent Ligands for Human β-Adrenoceptors” (Scientific Reports, 2017)
